Entries after “also recorded” stand apart in the source; their conditions may differ.
How the values were obtained:
[1] = tested on: developing vessels of the retina; assay: Neonatal mouse model, developing vessels of the retina, Example 3; type: in vivo, Neonatal C57BL/6 mice; settings: for effect on blood vessels of the developing retina (growth, morphology): 100 μg of each agent i.p. daily from P0, eyes taken at P4, versus control non-treated retina, FIG. 10
Excerpt: The effect of administering pegaptanib sodium (Macugen™), and ARC-127 (Archemix Corp., Cambridge, Mass.), a PEGylated, anti-PDGF aptamer having the sequence […] […] […] GT (SEQ ID NO: 23, which corresponds to SEQ ID NO: 146 from U.S. Pat. No. 6,582,918, incorporated herein by reference in its entirety) having 2′-fluoro-2′-deoxyuridine at positions 6, 20 and 30, 2′-fluoro-2′-deoxycytidine at positions 8, 21, 28, and 29, 2′-O -Methyl-2′-deoxyguanosine at positions 9, 15, 17, and 31, 2′-O-Methyl-2′-deoxyadenosine at position 22, “N” in positions 10 and 23 from a hexaethylene-glycol phosphoramidite, and an inverted orientation T (i.e., 3′-3′-linked) at position 32, or both on the developing vessels of the retina was investigated. Neonatal C57BL/6 mice were injected daily (in the intra-peritoneal cavity) with 100 μg of ARC-127 or 100 μg of Macugen or both, starting on postnatal day 0 (P0). Mice eyes were enucleated at P4. The retinal vasculature was visualized in flatmounted retinas by immunostaining with PECAM and NG-2 or by perfusion with ConA-FITC and analyzed by fluorescence microscopy.

[2] = tested on: corneal neovascularization; assay: Corneal NV regression, anti-VEGF aptamer and anti-PDGF aptamer, Example 6; type: in vivo, C57BL/6 mice; settings: pegaptanib 25 mg/kg i.p. twice a day, ARC-127 50 mg/kg once a day; treated day 10-20, read day 20; FIGS. 11, 12
Procedure: (§1) Corneal Neovascularization is a widely used animal model that allows clear visualization of abnormal vascular growth in the eye. The vessels that grow into the normally avascular cornea, can become well established, making this an attractive model to study vessel regression. To induce experimental corneal NV, male C57BL/6 mice (18-20 g; Charles River, Wilmington, Mass.) were anesthetized with intramuscular ketamine hydrochloride (25 mg/kg) and xylazine (10 mg/kg). NaOH (2 ul of 0.2 mM) was applied topically. The corneal and limbal epithelia were removed by applying a rotary motion parallel to the limbus using #21 blade (Feather, Osaka, Japan). […] Corneal NV was visualized using fluorescence microscopy and quantified using Openlab software. The percent of cornea covered by vessels was calculated as a percentage of total corneal area.
The corneal NV model of Example 1 was used to investigate the combination of an anti-VEGF aptamer and anti-PDGF aptamer. […] Corneal NV was visualized using CD31 staining (BD Biosciences Pharmingen, San Diego, Calif.) and quantified using Metamorph software. The percent of cornea covered by vessels was calculated as a percentage of total corneal area.

[3] = tested on: choroidal neovascularization; assay: Laser-induced choroidal neovascularization (CNV) model, Example 2; type: in vivo, C57BL/6 mice; settings: treated 7 days from day 7; for decrease in CNV area compared to control eyes: experiment with Gleevec (50 mg/kg gavage twice a day) and pegaptanib 25 mg/kg i.p. twice a day
Procedure: Experimental CNV is often used as a model for Age-related Macular degeneration (AMD). In this model, vessels of the choroid grow through breaks in Bruch's membrane and into the retina, similar to what is observed in AMD patients. To induce experimental CNV, male C57BL/6 mice (18-20 g; Charles River, Wilmington, Mass.) were anesthetized with intramuscular ketamine hydrochloride (25 mg/kg) and xylazine (10 mg/kg) and the pupils were dilated with 1% tropicamide. Four burns were generated using diode laser photocoagulation (75-μm spot size, 0.1-second duration, 90 mW, Oculight SL laser, IRIDEX, Mountain View, Calif.) and a hand-held cover slide as a contact lens. Burns localized to the 3, 6, 9 and 12 o'clock positions of the posterior pole of the retina. Production of a bubble at the time of laser, which indicates rupture of Bruch's membrane, is an important factor in obtaining choroidal neovascularization, so only mice in which a bubble was produced for all four burns were included in the study. […] In experiments using APB5 (an anti-mouse PDGFRb (CD140b) antibody (anti-PDGF agent) from eBioscience, San Diego, Calif.), 5 mg/kg of antibody was administered using intra-peritoneal injections of twice a day. The area of choroidal NV lesions was measured in flat-mounted choroid stained with PECAM. Flat-mounts were examined by fluorescence microscopy and quantified using Openlab software.

[4] = tested on: corneal neovascularization; assay: Corneal neovascularization (corneal NV) model, Example 1; type: in vivo, C57BL/6 mice; settings: mice; pegaptanib 25 mg/kg i.p. twice a day, Gleevec 50 mg/kg gavage twice a day; treated day 7-14, read day 14; FIG. 5
[5] = tested on: corneal neovascularization; assay: Corneal NV regression, anti-VEGF aptamer and antibody against PDGFB receptor, Example 7; type: in vivo, C57BL/6 mice; settings: pegaptanib 25 mg/kg i.p. twice a day, APB5 50 mg/kg by gavage twice a day; treated day 14-28, read day 28; FIG. 13
Procedure: as §1
The corneal NV model of Example 1 was used to investigate the combination of an anti-VEGF aptamer and an antibody against the PDGFB receptor. […] Corneal NV was visualized using fluorescence microscopy and quantified using Openlab software. The percent of cornea covered by vessels was calculated as a percentage of total corneal area.

[6] = tested on: corneal neovascularization; assay: Corneal NV regression, order of addition of therapeutic agent, Example 8; type: in vivo, C57BL/6 mice; settings: APB5 from day 14-21, pegaptanib sodium from day 21-28; read day 28; FIG. 14
Procedure: as §1
The corneal NV model of Example 1 was used to investigate the effect of order of addition of the combination therapy using an anti-VEGF aptamer and an antibody against the PDGFB receptor. […] Corneal NV was visualized using fluorescence microscopy and quantified using Openlab software. The percent of cornea covered by vessels was calculated as a percentage of total corneal area and the results are depicted in FIG. 14.

| Compound | mural cell recruitment to the developing vessels of the retina ([1]; 100 μg i.p. daily from P0, eyes taken at P4) | effect on blood vessels of the developing retina (growth, morphology) [1] | decrease in vessel growth (percent of cornea covered by vessels) as compared to day 20 controls [2] | effect on blood vessels of the developing retina (growth, morphology) ([1]; listed as Macugen) | decrease in CNV area compared to control ([3]; experiment with APB5 (5 mg/kg i.p. twice a day) and pegaptanib 25 mg/kg i.p. twice a day) [%] | decrease in CNV area compared to control eyes [3] [%] | decrease in vessel growth (percent of cornea covered by vessels) as compared to untreated controls and Gleevec treated eyes [4] [%] | decrease in vessel growth (percent of cornea covered by vessels) as compared to control [5] [%] | regression of corneal neovascularization, less neovascular growth as compared to control [6] |
| --- | --- | --- | --- | --- | --- | --- | --- | --- | --- |
| ARC-127: PEGylated, anti-PDGF aptamer (Archemix Corp.), sequence CAGGCUACGNCGTAGAGCAUCANTGATCCUGT (SEQ ID NO: 23) with 2′-fluoro and 2′-O-methyl modifications (CAGGCUACGNCGTAGAGCAUCANTGATCCUGT; PEG, 2'-fluoro and 2'-O-methyl modifications, chemistry not fully specified) | completely blocked | less vessel growth; also recorded: affects vessels outgrowth and morphology | did not show a significant decrease | – | – | – | – | – | – |
| pegaptanib sodium | – | – | 13.81% | did not interfere; also recorded: no effect | 24 | 27 | 19.6 | 8.3 | little effect |
| Cc1ccc(NC(=O)c2ccc(CN3CCN(C)CC3)cc2)cc1Nc1nccc(-c2cccnc2)n1 [Gleevec] | – | – | – | – | – | 4.2 | – | – | – |

Source: patent US8206707B2, “Combination therapy for the treatment of ocular neovascular disorders” (Ophthotech Corporation, priority 2004, dated 2012)
